# Measured values reported in patent US20030119814A1, “Novel prodrugs of N-H bond-containing compounds and methods of making thereof” (The University of Kansas, priority 2001, published 2003).
# Columns and labels:
# [1] = rabbits; due to high thiols in the blood; cited from earlier work
# [2] = Aqueous stability in buffer at 25 degrees Celsius; type: physicochemical; conditions: for aqueous degradation kinetics: buffered aqueous solution, Ionic Strength 0.15M; for half-life: 35 mM Acetate Buffer, Ionic Strength 0.15M (NaCl)
# Description: (§1) 1HNMR (300 MHz, DMSO-d6): □ 3.05 (d of d, 1H), 3.25 (d of d, 1H), 3.80 (broad), 4.15 (broad, 1H), 7.45 (t, 2H), 7.55 (t, 1H), 7.80 (d, 2H), 8.40 (broad), 9.60 (s, 1H). FAB+ 241.0 (M+1). […] When a 10 times molar excess of cysteine was added to the above solution, the model prodrug degraded (reverted to yield benzamide) with a half life of ˜20 to 30 minutes. In addition, the above benzamide-cysteine model prodrug had improved aqueous solubility compared to benzamide.
# (§2) 1HNMR (300 MHz, CDCl3): □ 1.15 (t, 3H), 3.10 (d of d, 11H), 3.70 (d of d, 11H), 3.95 (m, 2H), 4.70 (m, 1H), 5.05 (d of d, 2H), 6.25 (d, 1H), 7.35 (broad s, 5H), 7.75 (m, 2H), 7.90 (m, 2H). […] When a 10 times molar excess of cysteine was added to the above solution, the model prodrug degraded (reverted to yield phthalimide) instantaneously (kinetics were not measurable).
# (§3) ^1HNMR (300 MHz, DMSO-d6): □ 1.15 (t, 3H), 2.85 (d of d, 1H), 3.05 (d of d, 1H), 4.05 (m, 1H), 4.15 (q, 2H), 6.95 (s, 2H), 7.10 (s, 1H), 7.35 (m, 2H), 7.40 (broad s, 6H), 8.40 (broad). FAB+ 384.1 (M+1).
# [3] = Aqueous solubility compared to parent compound; type: physicochemical
# Description: as §1, §3
# physchem = conditions: soybean oil, oil or lipid
# [4] = Reversion of prodrug to parent on addition of 10 times molar excess of cysteine; type: physicochemical
# Description: as §1, §2
# [5] = within a pH range of 4.0 to 7.0, 25 degrees Celsius, projected by Eyring Plot
Structure (SMILES),"pH of maximum stability [2, 5]",aqueous solubility compared to parent compound [3],solubility (physchem),aqueous degradation kinetics [2],further results
"O=C1C2CC=CCC2C(=O)N1SC(Cl)(Cl)Cl (stereo not shown) [Captan, N-trichloromethylthio-4-cyclohexane 1,2-dicarboximide]",–,–,–,–,fate of active form in the body [1]: broken down in the body
CCOC(=O)C(N)CSNC(=O)N1c2ccccc2C=Cc2ccccc21 (stereo not shown) [Example 16],4.0,greatly improved,–,Pseudo-first order degradation kinetics were observed,"half-life ([2]; pH 4.0, 25 degrees Celsius, projected by Eyring Plot): ~181 days"
NC(CSNC(=O)c1ccccc1)C(=O)O (stereo not shown) [Example 13],6.0,improved,–,Pseudo-first order degradation kinetics were observed,"half-life ([4]; phosphate buffer with 10 times molar excess of cysteine, 10 times molar excess of cysteine added to the phosphate buffer solution): 0.333 to 0.5 h"
CCOC(=O)C(CSN1C(=O)c2ccccc2C1=O)NC(=O)OCc1ccccc1 (stereo not shown) [Example 15],–,–,–,did not show pseudo-first order kinetics,"half-life ([2]; pH 3.5, 25 degrees Celsius): 8 to 9 days; pH of maximum stability ([2]; within a pH range of 3.5 to 5.0, 25 degrees Celsius): 3.5; degradation (reversion to parent) with cysteine ([4]; 10 times molar excess of cysteine added to the acetate buffer solution, kinetics not measurable): instantaneously"

# The next lines start with results.
"pH of maximum stability [2, 5]",aqueous solubility compared to parent compound [3],solubility (physchem),Structure (SMILES),aqueous degradation kinetics [2],further results
–,–,> 10 mg/mL,CC(=O)N(CC1CN(c2ccc(N3CCOCC3)c(F)c2)C(=O)O1)Sc1ccccc1 (stereo not shown) [Example 11],–,melting point: 120.9 °C
–,–,> 30 mg/mL,CCOC(=O)CCSN(CC1CN(c2ccc(N3CCOCC3)c(F)c2)C(=O)O1)C(C)=O (stereo not shown) [Example 10],–,–
